Laboratory results as given in patent US12018016B2, “Aryl sulfonyl (hydroxy) piperidines as CCR6 inhibitors” (CHEMOCENTRYX, INC., priority 2021, dated 2024).

target: T1, human CCR6 (Homo sapiens, UniProt P51684); test: Migration assay (chemotaxis, ChemoTX); type: cell-based; details: hCCR6-transfected Ba/F3 cells in human serum, migration to recombinant human CCL20 10 nM, 37° C. 45 minutes; read-out: Potency (IC50 value in the migration assay)
T1 construct: expressed in transfected cells; host or cells: Ba/F3 cells (mouse pro-B line)
T1 sequence (P51684 1-374): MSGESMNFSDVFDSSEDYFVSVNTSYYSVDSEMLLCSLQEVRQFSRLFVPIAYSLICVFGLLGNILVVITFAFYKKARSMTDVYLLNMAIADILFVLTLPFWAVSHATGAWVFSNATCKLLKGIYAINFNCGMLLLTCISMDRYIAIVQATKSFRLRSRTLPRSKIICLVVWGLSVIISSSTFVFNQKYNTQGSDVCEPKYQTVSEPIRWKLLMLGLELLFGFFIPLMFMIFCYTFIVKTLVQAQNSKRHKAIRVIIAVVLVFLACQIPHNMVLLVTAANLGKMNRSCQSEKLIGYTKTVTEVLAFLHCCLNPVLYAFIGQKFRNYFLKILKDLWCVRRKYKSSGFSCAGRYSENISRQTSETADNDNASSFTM
Description: A chemotaxis assay can be used to determine the efficacy of potential receptor antagonists at blocking the migration mediated through chemokine receptors, such as CCR6. This assay is routinely performed using the ChemoTX® microchamber system with a 5-μm pore-sized polycarbonate membrane. Chemokine receptor-expressing cells are required for such an assay. In this case, Ba/F3 cells (Palacios et al., Nature, 309:126, 1984) transfected with the gene for human CCR6 under control of the CMV promotor were used. To begin such an assay, hCCR6-transfected Ba/F3 cells are first grown for 24 hr in medium supplemented with sodium butyrate, which increases CCR6 transcription via the CMV promotor. The prepared Ba/F3 cells, are collected by centrifugation at 400×g at room temperature, then suspended at 4 million/ml in human serum. The compound being tested is serially diluted from a maximum final concentration of 1 μM (or an equivalent volume of its solvent (DMSO)) and is then added to the cell/serum mixture. Separately, recombinant human CCL20 (MIP-3α/LARC) at its EC50 concentration (10 nM) is placed in the lower wells of the ChemoTX® plate. The 5-μm (pore size) polycarbonate membrane is placed onto the plate, and 20 μL of the cell/compound mixture is transferred onto each well of the membrane. The plates are incubated at 37° C. for 45 minutes, after which the polycarbonate membranes are removed and 5 μl of the DNA-intercalating dye CyQUANT (Invitrogen, Carlsbad, CA) is added to the lower wells. The amount of fluorescence, corresponding to the number of migrated cells, is measured using a Spectrafluor Plus plate reader (TECAN, San Jose, CA).

Row | SMILES | IC50
1 | O=S(=O)(c1ccc(-c2cnc3[nH]nc(-c4ncc[nH]4)c3c2)cc1)N1CC[C@@H](Nc2ccc(C(F)(F)F)cn2)[C@@H](O)C1 [Compound 191] | < 1 nM
2 | O=S(=O)(c1ccc(-c2ccnc(NC3CCC3)c2)cc1)N1CC[C@@H](Nc2ccc(C(F)(F)F)cn2)[C@@H](O)C1 [Compound 140] | < 1 nM
3 | Cc1cnc(C(N)=O)c(C)c1-c1ccc(S(=O)(=O)N2CC[C@@H](Nc3ccc(C(F)(F)F)cn3)[C@@H](O)C2)cc1 [Compound 204] | < 1 nM
4 | O=S(=O)(c1ccc(-c2ccc(N3CCNCC3)nc2)cc1)N1CC[C@@H](Nc2ccc(C(F)(F)F)cn2)[C@@H](O)C1 [Compound 114] | 1 to 10 nM
5 | O=C1CNCCN1c1cc(-c2ccc(S(=O)(=O)N3CC[C@@H](Nc4ccc(C(F)(F)F)cn4)[C@@H](O)C3)cc2)ccn1 [Compound 88, 1-(4-(4-(((3S,4R)-3-hydroxy-4-((5-(trifluoromethyl)pyridin-2-yl)amino)piperidin-1-yl)sulfonyl)phenyl)pyridin-2-yl)piperazin-2-one] | 1 to 10 nM
6 | CC(C)(O)C1CN(c2ccc(-c3ccc(S(=O)(=O)N4CC[C@@H](Nc5ccc(C(F)(F)F)cn5)[C@@H](O)C4)cc3)cn2)C1 [Compound 92] | < 1 nM
7 | N#Cc1n[nH]c2c(F)cc(-c3ccc(S(=O)(=O)N4CC[C@@H](Nc5ccc(C(F)(F)F)cn5)[C@@H](O)C4)cc3)cc12 [Compound 77, 7-fluoro-5-(4-(((3S,4R)-3-hydroxy-4-((5-(trifluoromethyl)pyridin-2-yl)amino)piperidin-1-yl)sulfonyl)phenyl)-1H-indazole-3-carbonitrile] | < 1 nM
8 | N#Cc1ccc(N[C@@H]2CCN(S(=O)(=O)c3ccc(-c4ccnc(C(N)=O)c4)cc3)C[C@@H]2O)nc1 [Example 37, 4-(4-(((3S,4R)-4-((5-cyanopyridin-2-yl)amino)-3-hydroxypiperidin-1-yl)sulfonyl)phenyl)picolinamide] | < 1 nM
9 | Cc1cnc(C#N)c(C)c1-c1ccc(S(=O)(=O)N2CC[C@@H](Nc3ccc(C(F)(F)F)cn3)[C@@H](O)C2)cc1 [Compound 75, 4-(4-(((3S,4R)-3-hydroxy-4-((5-(trifluoromethyl)pyridin-2-yl)amino)piperidin-1-yl)sulfonyl)phenyl)-3,5-dimethylpicolinonitrile] | < 1 nM
10 | O=S(=O)(c1ccc(-c2ccnc(N3CCCC3)c2)cc1)N1CC[C@@H](Nc2ccc(C(F)(F)F)cn2)[C@@H](O)C1 [Compound 90, (3S,4R)-1-((4-(2-(pyrrolidin-1-yl)pyridin-4-yl)phenyl)sulfonyl)-4-((5-(trifluoromethyl)pyridin-2-yl)amino)piperidin-3-ol] | < 1 nM
11 | COc1cc(-c2ccc(S(=O)(=O)N3CC[C@@H](Nc4ccc(C(F)(F)F)cn4)[C@@H](O)C3)cc2)cc2c1NC(=O)C2 [Example 15, 5-(4-(((3S,4R)-3-hydroxy-4-((5-(trifluoromethyl)pyridin-2-yl)amino)piperidin-1-yl)sulfonyl)phenyl)-7-methoxyindolin-2-one] | < 1 nM
12 | Cc1nc2[nH]cc(C#N)c2c(C)c1-c1ccc(S(=O)(=O)N2CC[C@@H](Nc3ccc(C(F)(F)F)cn3)[C@@H](O)C2)cc1 [Example 63, 5-(4-(((3S,4R)-3-hydroxy-4-((5-(trifluoromethyl)pyridin-2-yl)amino)piperidin-1-yl)sulfonyl)phenyl)-4,6-dimethyl-1H-pyrrolo[2,3-b]pyridine-3-carbonitrile] | < 1 nM
13 | O=S(=O)(c1ccc(-c2ccc(N3CCC(O)CC3)nc2)cc1)N1CC[C@@H](Nc2ccc(C(F)(F)F)cn2)[C@@H](O)C1 [Compound 171] | < 1 nM
14 | NC(=O)c1ncc(-c2ccc(S(=O)(=O)N3CC[C@@H](Nc4ccc(C(F)(F)F)cn4)[C@@H](O)C3)cc2)cc1N [Example 19, 3-Amino-5-(4-(((3S,4R)-3-hydroxy-4-((5-(trifluoromethyl)pyridin-2-yl)amino)piperidin-1-yl)sulfonyl)phenyl)picolinamide] | 1 to 10 nM
15 | CN(C)C1CN(c2cc(-c3ccc(S(=O)(=O)N4CC[C@@H](Nc5ccc(C(F)(F)F)cn5)[C@@H](O)C4)cc3)ccn2)C1 [Compound 177] | 1 to 10 nM
16 | N#Cc1c[nH]c2ncc(-c3ccc(S(=O)(=O)N4CC[C@H](Nc5ccc(C(F)(F)F)cn5)[C@H](O)C4)cc3)cc12 [Example 32, 5-(4-(((3R,4S)-3-hydroxy-4-((5-(trifluoromethyl)pyridin-2-yl)amino)piperidin-1-yl)sulfonyl)phenyl)-1H-pyrrolo[2,3-b]pyridine-3-carbonitrile] | 1 to 10 nM
17 | O=S(=O)(c1ccc(-c2cnnc(Cl)c2)cc1)N1CC[C@@H](Nc2ccc(C(F)(F)F)cn2)[C@@H](O)C1 [Compound 201] | < 1 nM

Row | SMILES | IC50
18 | CN(c1cc(-c2ccc(S(=O)(=O)N3CC[C@@H](Nc4ccc(C(F)(F)F)cn4)[C@@H](O)C3)cc2)ccn1)C1CCC1 [Compound 130] | < 1 nM
19 | NC(=O)c1cccc(-c2ccc(S(=O)(=O)N3CC[C@@H](Nc4ccc(C(F)(F)F)cn4)[C@@H](O)C3)cc2)n1 [Example 7, 6-(4-(((3S,4R)-3-Hydroxy-4-((5-(trifluoromethyl)pyridin-2-yl)amino)piperidin-1-yl)sulfonyl)phenyl)picolinamide] | < 1 nM
20 | CN(C)c1cc(-c2ccc(S(=O)(=O)N3CC[C@@H](Nc4ccc(C(F)(F)F)cn4)[C@@H](O)C3)cc2)ccn1 [Compound 124] | 1 to 10 nM
21 | CN(C)c1ccc(-c2ccc(S(=O)(=O)N3CC[C@@H](Nc4ccc(C(F)(F)F)cn4)[C@@H](O)C3)cc2)cn1 [Compound 112] | < 1 nM
22 | Cc1nnc(-c2cc(-c3ccc(S(=O)(=O)N4CC[C@@H](Nc5ncc(C(F)(F)F)cc5C)[C@@H](O)C4)cc3)ccn2)o1 [Compound 84, (3S,4R)-1-[4-[2-(5-methyl-1,3,4-oxadiazol-2-yl)-4-pyridyl]phenyl]sulfonyl-4-[[3-methyl-5-(trifluoromethyl)-2-pyridyl]amino]piperidin-3-ol] | < 1 nM
23 | CN1CCN(c2cncc(-c3ccc(S(=O)(=O)N4CC[C@@H](Nc5ccc(C(F)(F)F)cn5)[C@@H](O)C4)cc3)c2)CC1 [Compound 108] | < 1 nM
24 | Cc1ncc(C(N)=O)cc1-c1ccc(S(=O)(=O)N2CC[C@@H](Nc3ccc(C(F)(F)F)cn3)[C@@H](O)C2)cc1 [Compound 183] | < 1 nM
25 | Cc1nnc(-c2cc(-c3ccc(S(=O)(=O)N4CC[C@@H](Nc5ccc(C(F)(F)F)cn5)[C@@H](O)C4)cc3)ccn2)o1 [Example 11, (3S,4R)-1-((4-(2-(5-methyl-1,3,4-oxadiazol-2-yl)pyridin-4-yl)phenyl)sulfonyl)-4-((5-(trifluoromethyl)pyridin-2-yl)amino)piperidin-3-ol] | < 1 nM
26 | O=S(=O)(c1ccc(-c2ccncc2CO)cc1)N1CC[C@@H](Nc2ccc(C(F)(F)F)cn2)[C@@H](O)C1 [Compound 153] | 1 to 10 nM
27 | Cc1cnccc1-c1ccc(S(=O)(=O)N2CC[C@@H](Nc3ccc(C(F)(F)F)cn3)[C@@H](O)C2)cc1 [Compound 164] | < 1 nM
28 | Cc1nc2[nH]cc(C#N)c2cc1-c1ccc(S(=O)(=O)N2CC[C@@H](Nc3ccc(C(F)(F)F)cn3)[C@@H](O)C2)cc1 [Example 46, 5-(4-(((3S,4R)-3-hydroxy-4-((5-(trifluoromethyl)pyridin-2-yl)amino)piperidin-1-yl)sulfonyl)phenyl)-6-methyl-1H-pyrrolo[2,3-b]pyridine-3-carbonitrile] | < 1 nM
29 | COc1ccc(-c2ccc(S(=O)(=O)N3CC[C@@H](Nc4ccc(C(F)(F)F)cn4)[C@@H](O)C3)cc2)cn1 [Compound 154] | 1 to 10 nM
30 | Cc1cc(-c2ccc(S(=O)(=O)N3CC[C@@H](Nc4ccc(C(F)(F)F)cn4)[C@@H](O)C3)cc2)cc2c(C#N)n[nH]c12 [Example 43, 5-(4-(((3S,4R)-3-hydroxy-4-((5-(trifluoromethyl)pyridin-2-yl)amino)piperidin-1-yl)sulfonyl)phenyl)-7-methyl-1H-indazole-3-carbonitrile] | < 1 nM
31 | N#Cc1cc(C(F)(F)F)cnc1N[C@@H]1CCN(S(=O)(=O)c2ccc(-c3ccnc(C(N)=O)c3)cc2)C[C@@H]1O [Compound 85, 4-(4-(((3S,4R)-4-((3-cyano-5-(trifluoromethyl)pyridin-2-yl)amino)-3-hydroxypiperidin-1-yl)sulfonyl)phenyl)picolinamide] | 10 to 1000 nM
32 | NC(=O)c1cc(-c2ccc(S(=O)(=O)N3CC[C@@H](Nc4ccc(C(F)(F)F)cn4)[C@@H](O)C3)cc2)cnn1 [Compound 198] | < 1 nM
33 | CN1CC(N(C)c2ccc(-c3ccc(S(=O)(=O)N4CC[C@@H](Nc5ccc(C(F)(F)F)cn5)[C@@H](O)C4)cc3)cn2)C1 [Compound 98] | 1 to 10 nM
